Measurements reported in US20230085307A1, “PYRIDAZINONE COMPOUND AND HERBICIDE” (NISSAN CHEMICAL CORPORATION, priority 2019, published 2023).

Tests used:
barnyard grass [1] = assay: Test Example 4: herbicidal effect by soil treatment (Table 19, symbol H); assay type: in vivo, barnyard grass (Echinochloa crus-galli); details: 320 g/ha
Outline: (§1)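 Soil-surface application: an emulsion agent diluted with water to the predetermined dose is sprayed uniformly over seeds lying under roughly 1.5 cm of sterilized diluvial soil. Boxes stay in a greenhouse at 25° C. to 30° C. Three weeks later, each species is graded on previously defined criteria.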

chickweed [2] = assay: Test Example 5: herbicidal effect by foliage application, plastic box (Table 20, symbol P); assay type: in vivo, common chickweed (Stellaria media); details: foliage application, 320 g/ha, evaluated three weeks after application
Outline: (§2)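 Sow seeds spot-wise in sterilized diluvial soil; cover with ~1.5 cm soil. Grow 14 days in greenhouse, 25° C. to 30° C. Spray foliage with emulsion diluted to predetermined amount. Rate effect after 3 weeks.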

wild oat [3] = assay: Test Example 5: herbicidal effect by foliage application, plastic box (Table 20, symbol I); assay type: in vivo, wild oat (Avena fatua); details: foliage application, 320 g/ha, evaluated three weeks after application
Outline: as §2

persian speedwell [4] = assay: Test Example 4: herbicidal effect by soil treatment (Table 19, symbol R); assay type: in vivo, Persian speedwell (Veronica persica); details: 320 g/ha
Outline: as §1

southern crabgrass [5] = assay: Test Example 5: herbicidal effect by foliage application, plastic box (Table 20, symbol F); assay type: in vivo, southern crabgrass (Digitaria ciliaris); details: foliage application, 320 g/ha, evaluated three weeks after application
Outline: as §2

lambsquarters [6] = assay: Test Example 5: herbicidal effect by foliage application, plastic box (Table 20, symbol O); assay type: in vivo, lambsquarters (Chenopodium album); details: foliage application, 320 g/ha, evaluated three weeks after application
Outline: as §2

wild oat [7] = assay: Test Example 4: herbicidal effect by soil treatment (Table 19, symbol I); assay type: in vivo, wild oat (Avena fatua); details: 320 g/ha
Outline: as §1

Italian ryegrass [8] = assay: Test Example 4: herbicidal effect by soil treatment (Table 19, symbol K); assay type: in vivo, Italian ryegrass (Lolium multiflorum); details: 320 g/ha
Outline: as §1

redroot pigweed [9] = assay: Test Example 4: herbicidal effect by soil treatment (Table 19, symbol N); assay type: in vivo, redroot pigweed (Amaranthus retroflexus); details: 320 g/ha
Outline: as §1

persian speedwell [10] = assay: Test Example 5: herbicidal effect by foliage application, plastic box (Table 20, symbol R); assay type: in vivo, Persian speedwell (Veronica persica); details: foliage application, 320 g/ha, evaluated three weeks after application
Outline: as §2

velvetleaf [11] = assay: Test Example 4: herbicidal effect by soil treatment (Table 19, symbol M); assay type: in vivo, velvetleaf (Abutilon theophrasti); details: 320 g/ha
Outline: as §1

green foxtail [12] = assay: Test Example 4: herbicidal effect by soil treatment (Table 19, symbol G); assay type: in vivo, green foxtail (Setaria viridis); details: 320 g/ha
Outline: as §1

barnyard grass [13] = assay: Test Example 5: herbicidal effect by foliage application, plastic box (Table 20, symbol H); assay type: in vivo, barnyard grass (Echinochloa crus-galli); details: foliage application, 320 g/ha, evaluated three weeks after application
Outline: as §2

green foxtail [14] = assay: Test Example 5: herbicidal effect by foliage application, plastic box (Table 20, symbol G); assay type: in vivo, green foxtail (Setaria viridis); details: foliage application, 320 g/ha, evaluated three weeks after application
Outline: as §2

windgrass [15] = assay: Test Example 5: herbicidal effect by foliage application, plastic box (Table 20, symbol L); assay type: in vivo, windgrass (Apera spica-venti); details: foliage application, 320 g/ha, evaluated three weeks after application
Outline: as §2

rice flat sedge = assay: Test Example 3: herbicidal effect by foliage application, Wagner pot (Table 18, symbol E); assay type: in vivo, rice flat sedge (Cyperus iria); details: 320 g/ha
Outline: (§3)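 Plants were sown in alluvial soil held under 0.1–0.5 cm standing water and grown 14 days in a greenhouse at 25–30 °C. An emulsifiable formulation, water-diluted to the set dose, was then sprayed onto the foliage, and effects were scored three weeks later using previously defined criteria.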

barnyard grass [16] = assay: Test Example 3: herbicidal effect by foliage application, Wagner pot (Table 18, symbol H); assay type: in vivo, barnyard grass (Echinochloa crus-galli); details: 320 g/ha
Outline: as §3

southern crabgrass [17] = assay: Test Example 4: herbicidal effect by soil treatment (Table 19, symbol F); assay type: in vivo, southern crabgrass (Digitaria ciliaris); details: 320 g/ha
Outline: as §1

blackgrass [18] = assay: Test Example 4: herbicidal effect by soil treatment (Table 19, symbol J); assay type: in vivo, blackgrass (Alopecurus myosuroides); details: 320 g/ha
Outline: as §1

windgrass [19] = assay: Test Example 4: herbicidal effect by soil treatment (Table 19, symbol L); assay type: in vivo, windgrass (Apera spica-venti); details: 320 g/ha
Outline: as §1

Italian ryegrass [20] = assay: Test Example 5: herbicidal effect by foliage application, plastic box (Table 20, symbol K); assay type: in vivo, Italian ryegrass (Lolium multiflorum); details: foliage application, 320 g/ha, evaluated three weeks after application
Outline: as §2

velvetleaf [21] = assay: Test Example 5: herbicidal effect by foliage application, plastic box (Table 20, symbol M); assay type: in vivo, velvetleaf (Abutilon theophrasti); details: foliage application, 320 g/ha, evaluated three weeks after application
Outline: as §2

lambsquarters [22] = assay: Test Example 4: herbicidal effect by soil treatment (Table 19, symbol O); assay type: in vivo, lambsquarters (Chenopodium album); details: 320 g/ha
Outline: as §1

blackgrass [23] = assay: Test Example 5: herbicidal effect by foliage application, plastic box (Table 20, symbol J); assay type: in vivo, blackgrass (Alopecurus myosuroides); details: foliage application, 320 g/ha, evaluated three weeks after application
Outline: as §2

chickweed [24] = assay: Test Example 4: herbicidal effect by soil treatment (Table 19, symbol P); assay type: in vivo, common chickweed (Stellaria media); details: 320 g/ha
Outline: as §1

redroot pigweed [25] = assay: Test Example 5: herbicidal effect by foliage application, plastic box (Table 20, symbol N); assay type: in vivo, redroot pigweed (Amaranthus retroflexus); details: foliage application, 320 g/ha, evaluated three weeks after application
Outline: as §2

Chinese sprangletop = assay: Test Example 3: herbicidal effect by foliage application, Wagner pot (Table 18, symbol D); assay type: in vivo, chinese sprangletop (Leptochloa chinensis); details: 320 g/ha
Outline: as §3

SMILES	herbicidal effect rating, H: barnyard grass (barnyard grass [1])	herbicidal effect on P: chickweed (chickweed [2])	herbicidal effect on I: wild oat (wild oat [3])	herbicidal effect rating, R: persian speedwell (persian speedwell [4])	herbicidal effect on F: southern crabgrass (southern crabgrass [5])	herbicidal effect on O: lambsquarters (lambsquarters [6])	herbicidal effect rating, I: wild oat (wild oat [7])	herbicidal effect rating, K: Italian ryegrass (Italian ryegrass [8])	herbicidal effect rating, N: redroot pigweed (redroot pigweed [9])	herbicidal effect on R: persian speedwell (persian speedwell [10])	herbicidal effect rating, M: velvetleaf (velvetleaf [11])	herbicidal effect rating, G: green foxtail (green foxtail [12])	herbicidal effect on H: barnyard grass (barnyard grass [13])	herbicidal effect on G: green foxtail (green foxtail [14])	herbicidal effect on L: windgrass (windgrass [15])	herbicidal effect on E (rice flat sedge), rating 0-5 (rice flat sedge)	herbicidal effect on H (barnyard grass), rating 0-5 (barnyard grass [16])	herbicidal effect rating, F: southern crabgrass (southern crabgrass [17])	herbicidal effect rating, J: blackgrass (blackgrass [18])	herbicidal effect rating, L: windgrass (windgrass [19])	further results
CON=C(C)COc1ccc(-c2sc3ccc(F)cc3c2-c2c(O)c(C)nn(C)c2=O)cc1 [2-069]	5 (Herbicidal rate of 90% or more (almost completely withered))	5 (Herbicidal rate of 90% or more (almost completely withered))	2 (Herbicidal rate of 20% or more and less than 40%)	5 (Herbicidal rate of 90% or more (almost completely withered))	5 (Herbicidal rate of 90% or more (almost completely withered))	5 (Herbicidal rate of 90% or more (almost completely withered))	0 (Herbicidal rate of 5% or less (almost no effect))	5 (Herbicidal rate of 90% or more (almost completely withered))	5 (Herbicidal rate of 90% or more (almost completely withered))	5 (Herbicidal rate of 90% or more (almost completely withered))	3 (Herbicidal rate of 40% or more and less than 70%)	5 (Herbicidal rate of 90% or more (almost completely withered))	5 (Herbicidal rate of 90% or more (almost completely withered))	5 (Herbicidal rate of 90% or more (almost completely withered))	5 (Herbicidal rate of 90% or more (almost completely withered))	5 (Herbicidal rate of 90% or more (almost completely withered))	5 (Herbicidal rate of 90% or more (almost completely withered))	5 (Herbicidal rate of 90% or more (almost completely withered))	0 (Herbicidal rate of 5% or less (almost no effect))	0 (Herbicidal rate of 5% or less (almost no effect))	herbicidal effect on K: Italian ryegrass (Italian ryegrass [20]): 5 (Herbicidal rate of 90% or more (almost completely withered)); herbicidal effect on M: velvetleaf (velvetleaf [21]): 5 (Herbicidal rate of 90% or more (almost completely withered)); herbicidal effect rating, O: lambsquarters (lambsquarters [22]): 5 (Herbicidal rate of 90% or more (almost completely withered)); herbicidal effect on J: blackgrass (blackgrass [23]): 5 (Herbicidal rate of 90% or more (almost completely withered)); herbicidal effect rating, P: chickweed (chickweed [24]): 4 (Herbicidal rate of 70% or more and less than 90%); herbicidal effect on N: redroot pigweed (redroot pigweed [25]): 5 (Herbicidal rate of 90% or more (almost completely withered)); herbicidal effect on D (Chinese sprangletop), rating 0-5 (Chinese sprangletop): 4 (Herbicidal rate of 70% or more and less than 90%)
COc1ccc(-c2sc3ccc(F)cc3c2-c2c(O)c(C)nn(C)c2=O)cc1F [2-086]	3 (Herbicidal rate of 40% or more and less than 70%)	5 (Herbicidal rate of 90% or more (almost completely withered))	0 (Herbicidal rate of 5% or less (almost no effect))	5 (Herbicidal rate of 90% or more (almost completely withered))	0 (Herbicidal rate of 5% or less (almost no effect))	4 (Herbicidal rate of 70% or more and less than 90%)	0 (Herbicidal rate of 5% or less (almost no effect))	0 (Herbicidal rate of 5% or less (almost no effect))	4 (Herbicidal rate of 70% or more and less than 90%)	5 (Herbicidal rate of 90% or more (almost completely withered))	4 (Herbicidal rate of 70% or more and less than 90%)	3 (Herbicidal rate of 40% or more and less than 70%)	3 (Herbicidal rate of 40% or more and less than 70%)	3 (Herbicidal rate of 40% or more and less than 70%)	0 (Herbicidal rate of 5% or less (almost no effect))	5 (Herbicidal rate of 90% or more (almost completely withered))	3 (Herbicidal rate of 40% or more and less than 70%)	1 (Herbicidal rate of 5% or more and less than 20%)	0 (Herbicidal rate of 5% or less (almost no effect))	0 (Herbicidal rate of 5% or less (almost no effect))	herbicidal effect on K: Italian ryegrass (Italian ryegrass [20]): 0 (Herbicidal rate of 5% or less (almost no effect)); herbicidal effect on M: velvetleaf (velvetleaf [21]): 5 (Herbicidal rate of 90% or more (almost completely withered)); herbicidal effect rating, O: lambsquarters (lambsquarters [22]): 5 (Herbicidal rate of 90% or more (almost completely withered)); herbicidal effect on J: blackgrass (blackgrass [23]): 0 (Herbicidal rate of 5% or less (almost no effect)); herbicidal effect rating, P: chickweed (chickweed [24]): 0 (Herbicidal rate of 5% or less (almost no effect)); herbicidal effect on N: redroot pigweed (redroot pigweed [25]): 4 (Herbicidal rate of 70% or more and less than 90%); herbicidal effect on D (Chinese sprangletop), rating 0-5 (Chinese sprangletop): 3 (Herbicidal rate of 40% or more and less than 70%)
